In article PMC6582486, “Stapled EGFR peptide reduces inflammatory breast cancer and inhibits additional HER-driven models of cancer” (Journal of Translational Medicine, 2019):
Where a SMILES comes first, the peptide text is derived from it. Bridges are numbered along the chain shown (N, C = ends). [ ]: non-standard residue; d: D form. R8 = C=CCCCCCC[C@@](C)(N)C(=O)O; S5 = C=CCCC[C@](C)(N)C(=O)O

What was measured:
[1] = Plasma concentration after tail-vein injection (toxicokinetics); assay type: in vivo, CD-1 mice;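 for SAH-EJ1 concentration in plasma: BQL means below the quantifiable limit of 0.5 µg/mL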
Method: (§1) Toxicology was performed by IITRI. The study was conducted in compliance with the US Food and Drug Administration (FDA) good laboratory practice (GLP) Regulations (Code of Federal Regulations Title 21 Part 58) to evaluate the toxicokinetics, local tolerability, immunogenicity, and potential toxicity of SAH5-EJ1 following three times per week intravenous (IV) dosing for 28 days in mice. Male and female CD-1 IGS [Crl:CD1(ICR)] mice (135 per sex) were received from Wilmington, MA-based Charles River Laboratories, Inc.’s Kingston facility (Stone Ridge, NY).

[2] = 28-day toxicity study: survival, NOAEL; assay type: in vivo, CD-1 mice; details: for Survival (%): after 28 days, N = 10
Method: as §1
Finally, we confirmed the maximum tolerated dose of SAH5-EJ1, evaluating 5, 10, and 15 mg/kg body weight dosages (Table S3, Additional file 1). […] At 15 mg/kg, one male animal died from unknown causes and was classified as an accidental death. Therefore, 10 mg/kg was considered the no-observed-adverse-effect level (NOAEL). […] Increased spleen weights observed in 10 mg/kg and 15 mg/kg-treated mice most likely resulted from extramedullary hematopoiesis, also known as “blueberry muffin baby syndrome”, an asymptomatic event in which red blood cells accumulate outside of the bone marrow (Table S5, Additional file 1). Increased spleen size is likely due to an increase red blood cell production associated with IV injection-affiliated cell death. Clinical chemistry panels indicate that despite the high concentration of SAH5-EJ1 in the liver, liver function is not inhibited, with normal ranges of ALT/AST and total bilirubin (Table 2).
Male (M) and Female (F) mice. Not including mice for recovery study (additional 10 mice/sex), toxicokinetics (56 mice/sex), or immunogenicity (18 mice/sex). Accidental male deaths on day 27/28 at 5mg/kg dosage and day 22/28 at 15 mg/kg dosage. Female death on day 3/28 at 15mg/kg dosage with hypoactivity noted on day 1.

For `CC[C@H](C)[C@H](NC(=O)[C@H](Cc1c[nH]cn1)NC(=O)[C@H](CCCNC(=N)N)NC(=O)[C@H](CCCNC(=N)N)NC(=O)[C@H](CCCNC(=N)N)NC(=O)[C@H](CCSC)NC(=O)[C@H](Cc1ccccc1)NC(=O)[C@H](C)NC(=O)[C@H](CCCNC(=N)N)NC(=O)[C@H](C)NC(=O)[C@H](CCC(N)=O)NC(=O)[C@H](CCCNC(=N)N)NC(=O)[C@H](C)NC(=O)[C@H](C)NC(=O)[C@H](C)NC(=O)[C@H](CCCNC(=N)N)NC(=O)[C@H](C)NC(=O)[C@@H](N)Cc1ccc(O)cc1)C(=O)N[C@H](C(=O)N[C@@H](CCCNC(=N)N)C(=O)N[C@@H](CCCCN)C(=O)N[C@@H](CCCNC(=N)N)C(=O)N[C@]1(C)CCCCCCC=CCCC[C@@](C)(C(=O)N[C@@H](CCCNC(=N)N)C(=O)N[C@@H](CCC(=O)O)C(N)=O)NC(=O)[C@H](CCC(N)=O)NC(=O)[C@H](CC(C)C)NC(=O)[C@H](CC(C)C)NC(=O)[C@H](CCCNC(=N)N)NC(=O)[C@H](CCCNC(=N)N)NC(=O)[C@H](CC(C)C)NC1=O)C(C)C` [SAH5-EJ1] (H-YARAAARQARAFMRRRHIVRKR[R8]LRRLLQ[S5]RE-NH2; staple 23-30), the “SAH-EJ1 concentration in plasma” value ([1]; female, 15 mg/kg IV, day 1, 8 h, mouse 3 of 3) was “BQL (BQL represents below quantifiable limits (0.5 µg/mL))”, the “SAH-EJ1 concentration in plasma” value ([1]; female, 15 mg/kg IV, day 1, 24 h, mouse 1 of 3) was “BQL (BQL represents below quantifiable limits (0.5 µg/mL))” and the “SAH-EJ1 concentration in plasma” value ([1]; female, 15 mg/kg IV, day 1, 24 h, mouse 2 of 3) was “BQL (BQL represents below quantifiable limits (0.5 µg/mL))”. For the same molecule, the “SAH-EJ1 concentration in plasma” value ([1]; female, 15 mg/kg IV, day 1, 24 h, mouse 3 of 3) was “BQL (BQL represents below quantifiable limits (0.5 µg/mL))”, the “time by which peptide was not detectable in plasma” value ([1]; male mice, highest body weight dosage) was no more than 4 h and the “SAH-EJ1 concentration in plasma” value ([1]; male, 5 mg/kg IV, day 1, 1 h, mouse 3 of 3) was “BQL (BQL represents below quantifiable limits (0.5 µg/mL))”. The “SAH-EJ1 concentration in plasma” value ([1]; male, 5 mg/kg IV, day 1, 2 h, mouse 1 of 3) was “BQL (BQL represents below quantifiable limits (0.5 µg/mL))”, the “SAH-EJ1 concentration in plasma” value ([1]; male, 5 mg/kg IV, day 1, 2 h, mouse 2 of 3) was “BQL (BQL represents below quantifiable limits (0.5 µg/mL))” and the “SAH-EJ1 concentration in plasma” value ([1]; male, 5 mg/kg IV, day 1, 2 h, mouse 3 of 3) was “BQL (BQL represents below quantifiable limits (0.5 µg/mL))”. For the same molecule, the “SAH-EJ1 concentration in plasma” value ([1]; male, 5 mg/kg IV, day 1, 4 h, mouse 1 of 3) was “BQL (BQL represents below quantifiable limits (0.5 µg/mL))”, the “SAH-EJ1 concentration in plasma” value ([1]; male, 5 mg/kg IV, day 1, 4 h, mouse 2 of 3) was “BQL (BQL represents below quantifiable limits (0.5 µg/mL))” and the “SAH-EJ1 concentration in plasma” value ([1]; male, 5 mg/kg IV, day 1, 4 h, mouse 3 of 3) was “BQL (BQL represents below quantifiable limits (0.5 µg/mL))”. For the same molecule, the “SAH-EJ1 concentration in plasma” value ([1]; male, 5 mg/kg IV, day 1, 8 h, mouse 1 of 3) was “BQL (BQL represents below quantifiable limits (0.5 µg/mL))”, the “SAH-EJ1 concentration in plasma” value ([1]; male, 5 mg/kg IV, day 1, 8 h, mouse 2 of 3) was “BQL (BQL represents below quantifiable limits (0.5 µg/mL))” and the “SAH-EJ1 concentration in plasma” value ([1]; male, 5 mg/kg IV, day 1, 8 h, mouse 3 of 3) was “BQL (BQL represents below quantifiable limits (0.5 µg/mL))”. For the same molecule, the “SAH-EJ1 concentration in plasma” value ([1]; male, 5 mg/kg IV, day 1, 24 h, mouse 1 of 3) was “BQL (BQL represents below quantifiable limits (0.5 µg/mL))”, the “SAH-EJ1 concentration in plasma” value ([1]; male, 5 mg/kg IV, day 1, 24 h, mouse 2 of 3) was “BQL (BQL represents below quantifiable limits (0.5 µg/mL))” and the “SAH-EJ1 concentration in plasma” value ([1]; male, 5 mg/kg IV, day 1, 24 h, mouse 3 of 3) was “BQL (BQL represents below quantifiable limits (0.5 µg/mL))”. The “SAH-EJ1 concentration in plasma” value ([1]; male, 10 mg/kg IV, day 1, 2 h, mouse 1 of 3) was “BQL (BQL represents below quantifiable limits (0.5 µg/mL))”, the “SAH-EJ1 concentration in plasma” value ([1]; male, 10 mg/kg IV, day 1, 2 h, mouse 2 of 3) was “BQL (BQL represents below quantifiable limits (0.5 µg/mL))” and the “SAH-EJ1 concentration in plasma” value ([1]; male, 10 mg/kg IV, day 1, 2 h, mouse 3 of 3) was “BQL (BQL represents below quantifiable limits (0.5 µg/mL))”. For the same molecule, the “SAH-EJ1 concentration in plasma” value ([1]; male, 10 mg/kg IV, day 1, 4 h, mouse 1 of 3) was “BQL (BQL represents below quantifiable limits (0.5 µg/mL))”, the “SAH-EJ1 concentration in plasma” value ([1]; male, 10 mg/kg IV, day 1, 4 h, mouse 2 of 3) was “BQL (BQL represents below quantifiable limits (0.5 µg/mL))” and the “SAH-EJ1 concentration in plasma” value ([1]; male, 10 mg/kg IV, day 1, 4 h, mouse 3 of 3) was “BQL (BQL represents below quantifiable limits (0.5 µg/mL))”. For the same molecule, the “SAH-EJ1 concentration in plasma” value ([1]; male, 10 mg/kg IV, day 1, 8 h, mouse 1 of 3) was “BQL (BQL represents below quantifiable limits (0.5 µg/mL))”, the “SAH-EJ1 concentration in plasma” value ([1]; male, 10 mg/kg IV, day 1, 8 h, mouse 2 of 3) was “BQL (BQL represents below quantifiable limits (0.5 µg/mL))” and the “SAH-EJ1 concentration in plasma” value ([1]; male, 10 mg/kg IV, day 1, 8 h, mouse 3 of 3) was “BQL (BQL represents below quantifiable limits (0.5 µg/mL))”. The “SAH-EJ1 concentration in plasma” value ([1]; male, 10 mg/kg IV, day 1, 24 h, mouse 1 of 3) was “BQL (BQL represents below quantifiable limits (0.5 µg/mL))”, the “SAH-EJ1 concentration in plasma” value ([1]; male, 10 mg/kg IV, day 1, 24 h, mouse 2 of 3) was “BQL (BQL represents below quantifiable limits (0.5 µg/mL))” and the “SAH-EJ1 concentration in plasma” value ([1]; male, 10 mg/kg IV, day 1, 24 h, mouse 3 of 3) was “BQL (BQL represents below quantifiable limits (0.5 µg/mL))”. For the same molecule, the “SAH-EJ1 concentration in plasma” value ([1]; male, 15 mg/kg IV, day 1, 1 h, mouse 1 of 3) was “BQL (BQL represents below quantifiable limits (0.5 µg/mL))”, the “SAH-EJ1 concentration in plasma” value ([1]; male, 15 mg/kg IV, day 1, 2 h, mouse 1 of 3) was “BQL (BQL represents below quantifiable limits (0.5 µg/mL))” and the “SAH-EJ1 concentration in plasma” value ([1]; male, 15 mg/kg IV, day 1, 2 h, mouse 3 of 3) was “BQL (BQL represents below quantifiable limits (0.5 µg/mL))”. The “SAH-EJ1 concentration in plasma” value ([1]; male, 15 mg/kg IV, day 1, 4 h, mouse 1 of 3) was “BQL (BQL represents below quantifiable limits (0.5 µg/mL))”, the “SAH-EJ1 concentration in plasma” value ([1]; male, 15 mg/kg IV, day 1, 4 h, mouse 2 of 3) was “BQL (BQL represents below quantifiable limits (0.5 µg/mL))” and the “SAH-EJ1 concentration in plasma” value ([1]; male, 15 mg/kg IV, day 1, 4 h, mouse 3 of 3) was “BQL (BQL represents below quantifiable limits (0.5 µg/mL))”. The “SAH-EJ1 concentration in plasma” value ([1]; male, 15 mg/kg IV, day 1, 8 h, mouse 1 of 3) was “BQL (BQL represents below quantifiable limits (0.5 µg/mL))”, the “SAH-EJ1 concentration in plasma” value ([1]; male, 15 mg/kg IV, day 1, 8 h, mouse 2 of 3) was “BQL (BQL represents below quantifiable limits (0.5 µg/mL))” and the “SAH-EJ1 concentration in plasma” value ([1]; male, 15 mg/kg IV, day 1, 8 h, mouse 3 of 3) was “BQL (BQL represents below quantifiable limits (0.5 µg/mL))”. The “SAH-EJ1 concentration in plasma” value ([1]; male, 15 mg/kg IV, day 1, 24 h, mouse 1 of 3) was “BQL (BQL represents below quantifiable limits (0.5 µg/mL))”, the “SAH-EJ1 concentration in plasma” value ([1]; male, 15 mg/kg IV, day 1, 24 h, mouse 2 of 3) was “BQL (BQL represents below quantifiable limits (0.5 µg/mL))” and the “SAH-EJ1 concentration in plasma” value ([1]; male, 15 mg/kg IV, day 1, 24 h, mouse 3 of 3) was “BQL (BQL represents below quantifiable limits (0.5 µg/mL))”. The “systemic or target organ toxicity” value ([2]; 5, 10 and 15 mg/kg IV, 28-day repeat toxicity study) was “no evidence of any systemic or target organ toxicity”, the NOAEL at 672 h ([2]; both sexes, CD-1, mouse, in vivo, IV three times per week, 28 days, mice, read-out: no-observed-adverse-effect level (NOAEL)) was 10 mg/kg and the “Survival (%)” value ([2]; female, 5 mg/kg) was 100%. The “Survival (%)” value ([2]; female, 10 mg/kg) was 100%, the “Survival (%)” value ([2]; female, 15 mg/kg) was 90% and the “Survival (%)” value ([2]; male, 5 mg/kg) was 90%. For the same molecule, the “Survival (%)” value ([2]; male, 10 mg/kg) was 100% and the “Survival (%)” value ([2]; male, 15 mg/kg) was 90%.
